Laboratory results as given in article PMC11968394, “The effect of deuterated PLK1 inhibitor on its safety and efficacy in vivo” (Frontiers in Oncology, 2025).
Several values for one entry are separate records, joined by “and”; a condition that tells them apart may be missing. Identical values can stand only once.

Columns and labels:
CLK1 = CLK1 (Homo sapiens, UniProt P49759); test: Kinase assay CLK1; type: biochemical
Description: (§1) Serial dilutions in DMSO were prepared. PLK1 was serially diluted 5-fold from 10 μM, yielding concentrations from 10000 nM to 0.00512 nM. Other targets were serially diluted 3-fold from 10 μM, yielding concentrations from 10000 nM to 0.5 nM. We have used two kinase assays: HTRF assay and ADG-Glo assay.
(§2) For HTRF Assay, 2× ATP/substrate solution and 2× kinase solution were prepared in kinase reaction buffer. Using an Echo 655, 50 nL of each diluted compound was transferred to a 384-well detection plate. The plate was centrifuged at 1000 rpm for 1 minute. 2.5 μL of 2× kinase solution was added to each well. The plate was incubated at 25°C for 10 minutes. 2.5 μL of 2× ATP/substrate solution was added to each well. The plate was centrifuged at 1000 rpm for 1 minute. The plate was incubated at 25°C for 40 minutes. 2× XL665 and antibody detection reagent were prepared in detection buffer. 5 μL of the prepared kinase detection reagent was added to each well. The plate was centrifuged at 1000 rpm for 1 minute. The plate was incubated at 25°C for 1 hour. Fluorescence signals at 620 nm (Cryptate) and 665 nm (XL665) were measured using a multifunction plate reader.
(§3) For ADP-Glo Assay, 2× ATP/substrate solution and 2× kinase solution were prepared in kinase reaction buffer. […] Luminescence signals were measured using a multifunction plate reader.

TSSK1 = TSSK1 (Homo sapiens, UniProt Q9BXA7); test: Kinase assay TSSK1; type: biochemical
Description: as §1, §2, §3

CK1δ = CK1δ (Homo sapiens, UniProt P48730); test: Kinase assay CK1δ; type: biochemical
Description: as §1, §2, §3

MIA PaCa-2 = test: Cell viability (CellTiter-Glo, 72 h), MIA PaCa-2; type: cell-based, Human; details: MIA PaCa-2, 72 hours; for IC50: Homo sapiens; for Bottom: dose-response curve bottom; for Top: dose-response curve top
Description: Human pancreatic cancer cell lines (PSN1, PANC-1, Panc 04.03, MIA PaCa-2, BxPC-3, and Capan-1) were cultured in their respective culture media. PSN1 cell lines were maintained in RPMI 1640 + 10%FBS. MIA PaCa-2 cells were cultured in DMEM+10%FBS+5% horse serum. Panc 04.03 cells were grown in RPMI 1640 + 15%FBS+10μg/mL Insulin. PANC-1 cells were maintained in DMEM+10%FBS. BxPC-3 cells were cultured in RPMI 1640 + 10%FBS. Capan-1 cells were grown in IMDM+20%FBS. All cells were incubated at 37°C in a humidified atmosphere containing 5% CO2.
For assays, cells in the logarithmic growth phase were harvested, seeded to different concentrations at 2,000-6,000 cells/well in 96-well plates. Following overnight incubation, test compounds were added at various concentrations and incubated for 72 hours. Cell viability was assessed by the ATP concentration using the CellTiter-Glo reagent (Promega, Madison, WI 53711 USA), and luminescence values were recorded by a Multilabel Reader (PerkinElmer, Waltham, MA, USA).

DYRK3 = DYRK3 (Homo sapiens, UniProt O43781); test: Kinase assay DYRK3; type: biochemical
Description: as §1, §2, §3

CK1α = CK1α (Homo sapiens, UniProt P48729); test: Kinase assay CK1α; type: biochemical
Description: as §1, §2, §3

PSN-1 CDX model = test: PSN-1 CDX model, tumor growth inhibition after 4-day dosing; type: in vivo, M-NSG mice; details: for TGI / Tumor volume Day 4: 4-day dosing; for Tumor volume Day 0: baseline
Description: For in vivo PK/PD studies, a PSN1 tumor model was established in female M-NSG (NOD.Cg-Prkdc^scidIl2rg^em1Smoc ) mice, which are severely immunodeficient mice lacking the interleukin 2 receptor gamma chain on a NOD.Cg-Prkdc^scid background, at Shanghai Model Organisms (Shanghai, China). Briefly, 5 × 10^6 PSN1 cells were inoculated subcutaneously into each M-NSG mouse. Once the tumors reached approximately 500 mm³, compounds were administered orally at various dosages. For PK studies, blood samples were collected at 0, 0.25, 0.5, 1, 2, 6, and 24 hours post-dose. The sera from blood were then obtained and stored at -70°C. For PD studies, tumors were harvested 2 hours after dosing and stored at -70°C.The serum and tumor samples were then transported to PRECEDO (Hefei, Anhui, China) for further PK/PD studies.
(§4) TGI was calculated as follows.

BxPC-3 CDX model = test: BxPC-3 CDX model; type: in vivo, NOD SCID mouse; details: for Mice died: NOD SCID, 60 mg/kg, 6 mice/group, 10 days
Description: These studies were performed at Yikon Medical (Beijing, China). Cancer cell line HCT 116 or BxPC-3 were cultured in 10% FBS RPMI-1640 medium plus penicillin, streptomycin, and glutamine at 37°C and 5% CO2 until reaching confluency. Cells were then prepared for inoculation. 5×10⁷ cells/mL cells in 100 µL were inoculated subcutaneously into the right flank of each female BALB/c nude mouse for HCT 116 cell line or female NOD SCID mouse for BxPC-3 cell line. When tumors reached 100-150 mm³, mice were divided into 4-5 groups (6-7 mice/group). […] Mice were dosed at least 10 days and were monitored for 30 days.
as §4

CK1ϵ = CK1ϵ (Homo sapiens, UniProt P49674); test: Kinase assay CK1ϵ; type: biochemical
Description: as §1, §2, §3

DYRK2 = DYRK2 (Homo sapiens, UniProt Q92630); test: Kinase assay DYRK2; type: biochemical
Description: as §1, §2, §3

Chain of CK1ϵ (P49674 whole entry): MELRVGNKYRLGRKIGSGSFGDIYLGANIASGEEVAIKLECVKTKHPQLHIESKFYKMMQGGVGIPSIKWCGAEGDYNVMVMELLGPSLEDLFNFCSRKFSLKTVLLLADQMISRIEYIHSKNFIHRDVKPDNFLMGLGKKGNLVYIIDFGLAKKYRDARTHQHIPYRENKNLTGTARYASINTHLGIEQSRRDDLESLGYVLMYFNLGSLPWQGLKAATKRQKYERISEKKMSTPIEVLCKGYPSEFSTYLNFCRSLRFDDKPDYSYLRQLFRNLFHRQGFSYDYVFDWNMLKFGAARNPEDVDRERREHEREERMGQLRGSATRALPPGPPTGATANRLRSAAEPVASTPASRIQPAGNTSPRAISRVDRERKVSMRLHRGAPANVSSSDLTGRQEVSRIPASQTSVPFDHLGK
Chain of CK1α (P48729 whole entry): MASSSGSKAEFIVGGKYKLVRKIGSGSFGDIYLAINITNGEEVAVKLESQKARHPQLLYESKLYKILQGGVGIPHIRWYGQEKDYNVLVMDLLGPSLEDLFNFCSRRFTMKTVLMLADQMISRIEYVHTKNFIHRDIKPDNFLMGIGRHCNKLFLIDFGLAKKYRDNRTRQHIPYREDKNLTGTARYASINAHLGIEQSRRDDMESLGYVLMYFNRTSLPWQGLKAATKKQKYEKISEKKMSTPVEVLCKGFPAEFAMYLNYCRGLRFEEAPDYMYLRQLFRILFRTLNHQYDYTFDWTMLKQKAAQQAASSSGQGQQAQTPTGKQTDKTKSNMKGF
Chain of TSSK1 (Q9BXA7 whole entry, species assumed): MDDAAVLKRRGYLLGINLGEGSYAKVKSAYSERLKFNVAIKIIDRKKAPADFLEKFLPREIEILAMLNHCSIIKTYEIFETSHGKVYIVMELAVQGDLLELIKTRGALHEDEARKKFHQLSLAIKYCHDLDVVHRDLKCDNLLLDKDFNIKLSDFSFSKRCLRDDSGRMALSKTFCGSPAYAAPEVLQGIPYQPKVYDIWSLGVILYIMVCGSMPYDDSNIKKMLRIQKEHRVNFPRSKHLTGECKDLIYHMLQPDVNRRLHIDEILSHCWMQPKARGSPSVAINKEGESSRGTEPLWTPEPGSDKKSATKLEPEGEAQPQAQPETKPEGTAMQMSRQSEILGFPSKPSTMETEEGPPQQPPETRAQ
Chain of DYRK3 (O43781 whole entry, species assumed): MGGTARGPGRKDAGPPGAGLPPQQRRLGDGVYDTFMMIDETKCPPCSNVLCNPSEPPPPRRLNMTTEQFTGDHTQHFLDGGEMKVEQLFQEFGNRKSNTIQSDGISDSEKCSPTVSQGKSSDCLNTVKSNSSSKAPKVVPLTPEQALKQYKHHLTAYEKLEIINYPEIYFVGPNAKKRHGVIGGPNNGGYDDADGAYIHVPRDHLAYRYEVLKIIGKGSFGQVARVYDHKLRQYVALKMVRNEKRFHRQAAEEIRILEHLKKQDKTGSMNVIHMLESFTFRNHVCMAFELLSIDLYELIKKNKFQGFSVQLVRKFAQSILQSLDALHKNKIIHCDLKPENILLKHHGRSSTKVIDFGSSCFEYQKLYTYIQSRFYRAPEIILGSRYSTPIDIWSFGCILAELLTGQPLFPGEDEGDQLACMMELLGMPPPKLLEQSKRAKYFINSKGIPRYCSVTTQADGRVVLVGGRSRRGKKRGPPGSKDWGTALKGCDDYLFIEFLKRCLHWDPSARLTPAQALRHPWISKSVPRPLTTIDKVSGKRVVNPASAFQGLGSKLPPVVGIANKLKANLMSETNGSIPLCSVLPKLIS
Chain of DYRK2 (Q92630 whole entry): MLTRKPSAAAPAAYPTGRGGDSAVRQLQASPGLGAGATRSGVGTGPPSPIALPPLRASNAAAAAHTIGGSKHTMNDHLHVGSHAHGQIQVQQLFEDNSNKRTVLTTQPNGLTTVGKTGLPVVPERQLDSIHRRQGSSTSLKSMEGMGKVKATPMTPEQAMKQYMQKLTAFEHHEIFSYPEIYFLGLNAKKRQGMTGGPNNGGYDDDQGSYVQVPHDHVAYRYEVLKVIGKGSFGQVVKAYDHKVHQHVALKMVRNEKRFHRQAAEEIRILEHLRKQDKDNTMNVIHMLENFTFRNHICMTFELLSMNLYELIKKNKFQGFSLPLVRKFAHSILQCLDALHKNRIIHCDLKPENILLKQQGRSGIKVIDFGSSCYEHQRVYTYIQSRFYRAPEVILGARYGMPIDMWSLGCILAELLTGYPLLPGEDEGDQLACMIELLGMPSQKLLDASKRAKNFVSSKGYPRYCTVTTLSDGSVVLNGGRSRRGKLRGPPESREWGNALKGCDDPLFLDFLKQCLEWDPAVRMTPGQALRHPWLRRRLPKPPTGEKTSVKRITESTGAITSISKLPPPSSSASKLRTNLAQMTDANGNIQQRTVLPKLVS
Chain of CK1δ (P48730 whole entry): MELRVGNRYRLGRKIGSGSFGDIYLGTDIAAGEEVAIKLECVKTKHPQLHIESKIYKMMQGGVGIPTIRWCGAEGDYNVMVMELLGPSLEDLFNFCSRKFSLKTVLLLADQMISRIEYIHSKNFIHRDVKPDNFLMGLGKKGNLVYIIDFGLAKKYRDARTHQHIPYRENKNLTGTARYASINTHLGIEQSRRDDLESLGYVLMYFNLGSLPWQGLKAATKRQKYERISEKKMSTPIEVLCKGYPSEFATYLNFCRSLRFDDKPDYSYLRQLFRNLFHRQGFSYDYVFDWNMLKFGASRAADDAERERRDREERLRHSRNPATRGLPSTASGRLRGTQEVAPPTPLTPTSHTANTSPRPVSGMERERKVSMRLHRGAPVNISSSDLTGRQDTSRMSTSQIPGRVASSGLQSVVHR
Chain of CLK1 (P49759 whole entry): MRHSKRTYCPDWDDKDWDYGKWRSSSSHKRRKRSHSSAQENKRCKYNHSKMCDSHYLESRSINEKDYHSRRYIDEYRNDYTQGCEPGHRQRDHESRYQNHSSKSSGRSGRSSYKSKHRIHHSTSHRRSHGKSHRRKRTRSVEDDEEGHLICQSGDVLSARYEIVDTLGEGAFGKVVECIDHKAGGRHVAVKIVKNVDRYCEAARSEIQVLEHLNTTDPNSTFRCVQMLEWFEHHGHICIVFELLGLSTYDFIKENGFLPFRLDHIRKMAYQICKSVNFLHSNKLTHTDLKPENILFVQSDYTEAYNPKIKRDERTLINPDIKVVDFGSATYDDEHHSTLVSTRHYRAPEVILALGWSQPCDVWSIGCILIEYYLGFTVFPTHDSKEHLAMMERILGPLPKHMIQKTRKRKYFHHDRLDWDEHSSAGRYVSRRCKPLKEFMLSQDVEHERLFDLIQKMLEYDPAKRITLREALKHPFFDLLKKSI

## CN1CCN(c2ccc(OC(F)(F)F)c(Nc3ncc4c(n3)-c3c(c(C(N)=O)nn3CCO)CC4)c2)CC1 [NMS-P937]
CLK1
  IC50: 235 nM
TSSK1
  IC50: 77.8 nM
CK1δ
  IC50: 59.3 nM
MIA PaCa-2
  IC50: 196 nM
  Bottom: -4.1
  Top: 78.7
DYRK3
  IC50: 114 nM
CK1α
  IC50: 184 nM
PSN-1 CDX model; 15 mg/kg
  TGI: 51.3%
  Tumor volume Day 4: 166.43 ± 5.79 mm^3
  Tumor volume Day 0: 119.66 ± 1.67 mm^3
PSN-1 CDX model; 30 mg/kg
  TGI: 68.1%
  Tumor volume Day 4: 149.94 ± 4.21 mm^3
  Tumor volume Day 0: 119.38 ± 2.09 mm^3
PSN-1 CDX model; 60 mg/kg
  TGI: 81.2%
  Tumor volume Day 4: 137.49 ± 5.16 mm^3
  Tumor volume Day 0: 119.42 ± 2.14 mm^3
BxPC-3 CDX model; NOD SCID mice
  Body weight: dramatically reduced body weight
BxPC-3 CDX model
  Mice died: two mice died
BxPC-3 CDX model; listed as NMP-P937, 60 mg/kg
  Mice died: 2/6
CK1ϵ
  IC50: 156 nM
DYRK2
  IC50: 1150 nM

## [2H]C1([2H])N(C)C([2H])([2H])C([2H])([2H])N(c2ccc(OC(F)(F)F)c(Nc3ncc4c(n3)-c3c(c(C(N)=O)nn3CCO)CC4)c2)C1([2H])[2H] [PR00012]
CLK1
  IC50: 196 nM
TSSK1
  IC50: 53.2 nM
CK1δ
  IC50: 51.8 nM
MIA PaCa-2
  IC50: 262 nM
  Bottom: 8.4
  Top: 86.8
DYRK3
  IC50: 112 nM
CK1α
  IC50: 182 nM
PSN-1 CDX model; 15 mg/kg
  TGI: 55.5%
  Tumor volume Day 4: 162.12 ± 4.11 mm^3
  Tumor volume Day 0: 119.44 ± 1.78 mm^3
PSN-1 CDX model; 30 mg/kg
  TGI: 75.0%
  Tumor volume Day 4: 143.49 ± 5.64 mm^3
  Tumor volume Day 0: 119.48 ± 1.95 mm^3
PSN-1 CDX model; 60 mg/kg
  TGI: 91.2%
  Tumor volume Day 4: 127.93 ± 1.60 mm^3
  Tumor volume Day 0: 119.48 ± 1.72 mm^3
BxPC-3 CDX model; NOD SCID mice
  Tumor growth: tumor growth inhibition in a dose-dependent manner
BxPC-3 CDX model
  Mice died: one mouse died and 1/6
CK1ϵ
  IC50: 156 nM
DYRK2
  IC50: 81.4 nM
